Reference: patent US5620676A, “Biologically active ATP analogs” (priority 1995, dated 1997)
“Also recorded” adds a separate entry of the source. Read-outs that look alike come from different tables or passages of the source.

Legend:
[1] = molecular target: T1, P2X receptor (urinary bladder) (Cavia porcellus, UniProt A0A286XVA9); experiment: Contraction of guinea pig isolated urinary bladder detrussor muscle; details: guinea pig urinary bladder
T1 construct: guinea pig isolated urinary bladder detrussor muscle; from tissue; host or cells: guinea pig isolated urinary bladder detrusor muscle

[2] = molecular target: T2, P2X receptor (vas deferens) (Cavia porcellus, UniProt A0A286XVA9); experiment: Contraction of guinea pig isolated vas deferens
T2 sequence (A0A286XVA9 1-399): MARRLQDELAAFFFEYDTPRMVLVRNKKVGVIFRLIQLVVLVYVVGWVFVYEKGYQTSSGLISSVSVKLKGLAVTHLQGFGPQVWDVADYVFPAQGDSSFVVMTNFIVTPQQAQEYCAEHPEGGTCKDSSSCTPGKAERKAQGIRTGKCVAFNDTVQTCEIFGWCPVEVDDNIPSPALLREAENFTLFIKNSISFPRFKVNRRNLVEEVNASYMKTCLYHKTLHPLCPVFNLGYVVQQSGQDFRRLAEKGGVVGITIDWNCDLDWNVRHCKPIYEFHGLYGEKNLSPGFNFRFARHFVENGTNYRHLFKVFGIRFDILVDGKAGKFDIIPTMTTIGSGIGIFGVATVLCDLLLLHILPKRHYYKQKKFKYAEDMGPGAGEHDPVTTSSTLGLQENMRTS

[3] = molecular target: T3, P2Y receptor (turkey erythrocyte membranes) (Meleagris gallopavo, UniProt P49652); experiment: Stimulation of phospholipase C (inositol phosphate formation) in turkey erythrocyte membranes; format: biochemical; details: for activity/potency in words, turkey erythrocyte / EC50: turkey erythrocyte membranes
T3 construct: from tissue; host or cells: washed turkey erythrocytes, ghosts prepared by hypotonic lysis
Description: Phospholipase C activity: Stimulation of inositol phosphate formation by compounds of the present invention was measured in turkey erythrocyte membranes as described by Harden et al., supra and Boyer et al., supra. The K0.5 values were averaged from 3-8 independently determined dose-response curves for each compound. Briefly, one ml of washed turkey erythrocytes was incubated in inositol-free medium (DMEM; Gibco) with 0.5-1 mCi of 2-[^3 H]myoinositol (20 Ci/mmol; American Radiolabeled Chemicals Inc., St. Louis, Mo.)for 18-24 h in a humidified atmosphere of 95% air 5% CO2 at 37° C. Erythrocyte ghosts were prepared by rapid lysis in hypotonic buffer (5 mM sodium phosphate, pH 7.4, 5 mM MgCl2, 1 mM EGTA) as described by Boyer et al., supra. Phospholipase C activity was measured in 25 μl of [^3 H]inositol-labeled ghosts (≈175 μg of protein, 200-500,000 cpm/assay) in a medium containing 424 μM CaC12, 0.91 mM MgSO4, 2 mM EGTA, 115 mM KCl, 5 mM KH2 PO4, and 10 mM Hepes, pH 7.0. Assay (100 μl or 200 μl final volume) contained 1 μM GTPγS and the indicated concentrations of nucleotide analogs. Ghosts were incubated at 30° C. for 5 min, and total [^3 H]inositol phosphates were quantitated after purification by anion exchange chromatography according to Harden et al. (supra) and Boyer et al. (supra).
(§1) Phospholipase C activity and muscle relaxation/contraction effects were assessed using the methods recited in Example 3. In FIGS. 10-12, which present the result of assays of phospholipase C activity in turkey erythrocyte membranes, the x-axis is marked in units of the log of the molar concentration of the putative P2Y receptor agonist tested and the y-axis is marked in units of the percentage of maximum production of [^3 H]-inositol phosphate generated. In FIG. 13, the x-axis is marked in units of the negative log of the molar concentration of applied putative P2Y receptor agonists and the y-axis is marked in units of the percentage relaxation of the 50 nM carbachol-induced contraction of guinea pig taenia coli. In FIG. 14, the x-axis is also marked in units of the negative log of the molar concentration of applied putative P2Y receptor agonists and the y-axis is marked in units of the percentage relaxation of the 1 μM noradrenalin-induced contraction of rabbit aorta endothelium. In FIGS. 15-16, the x-axis is marked in units of the negative log of the molar concentration of applied putative p^2X receptor agonists and the y-axis is marked in units of the percentage contraction relative to a standard dose of KCl (i.e., 60 mM), as assessed in guinea pig isolated urinary bladder detrussor muscle (FIG. 15) and guinea pig isolated vas deferens (FIG. 16).

[4] = molecular target: T4, P2Y receptor (taenia coli) (Cavia porcellus, UniProt P59902); experiment: Relaxation of carbachol-contracted guinea pig taenia coli
T4 construct: Relaxant responses mediated via P2Y receptors were examined in guinea pig taenia coli; from tissue; host or cells: guinea pig taenia coli (carbachol-contracted)
Text: (§2) Muscular relaxation/contraction: Relaxant responses mediated via P2Y receptors were examined in guinea pig taenia coli, rabbit aorta, and rabbit mesenteric artery, as described by Hoyle et al. (Br. J. Pharmacol., 107, 367-374 (1992a)), Burnstock et al., (Br. J. Pharmacol., 90, 383-391 (1987a)), and Rubino et al., (Eur. J. Pharmacol., 212, 237-240 (1992)). Contractile responses mediated via P2X receptors were examined in the guinea pig urinary bladder and vas deferens, and rabbit saphenous artery, also using standard methods (see Hoyle et al., supra., 1992; Hoyle et al., Br. J. Pharmacol., 99, 617-621 (1990); and Burnstock et al., Br. J. Pharmacol., 90, 111-120 (1987b)).
Muscular relaxation assays were performed as recited in Example 3. […] All curves are the mean of two determinations except for 5'-ATP (n=38), 2-hexylthio-ATP (n=4), 2-(5-hexenyl)thio-ATP (n=3), and 2-(2-4-nitrophenylethyl)thio-AMP (n=5). […] The pD2 value for 2-methylthio-ATP is 8.0±0.15, as reported by Hoyle et al., in Receptor Data for Biological Experiments, (H. N. Doods and J. C. A. Van Meel, eds., 1992b) at pp. 54-61.
as §1

[5] = molecular target: P2Y receptor (mesenteric artery); experiment: Relaxation of rabbit mesenteric artery; details: for relaxation pD2, mes. artery: log molar units
[6] = molecular target: T5, P2X receptor (saphenous artery) (Oryctolagus cuniculus, UniProt G1U3D6); experiment: Contraction of rabbit saphenous artery; details: for activation at 10 µM: read-out: response at 10 μM relative to the contraction produced by 1 μM α,MeATP, saph. artery
T5 construct: and rabbit saphenous artery; from tissue; host or cells: rabbit saphenous artery
T5 sequence (G1U3D6 1-399): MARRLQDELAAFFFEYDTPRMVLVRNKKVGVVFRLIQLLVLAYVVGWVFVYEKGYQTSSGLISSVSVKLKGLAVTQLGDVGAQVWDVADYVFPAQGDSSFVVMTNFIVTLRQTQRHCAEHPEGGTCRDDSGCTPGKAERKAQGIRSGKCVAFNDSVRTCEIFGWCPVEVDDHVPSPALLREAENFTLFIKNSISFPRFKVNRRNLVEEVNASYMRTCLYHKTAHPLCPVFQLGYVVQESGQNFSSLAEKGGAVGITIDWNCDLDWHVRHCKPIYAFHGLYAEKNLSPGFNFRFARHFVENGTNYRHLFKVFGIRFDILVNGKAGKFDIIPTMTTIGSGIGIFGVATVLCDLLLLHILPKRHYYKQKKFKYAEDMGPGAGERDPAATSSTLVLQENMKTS
Text: as §2
^c For the saphenous artery, the percentages in brackets are response
at 10 μM relative to the contraction produced by 1 μM α,MeATP
ATP in this assay is very weak (EC50 =
1.78 mM). The highest concentrations of the analogues tested were 3-30

[7] = tested on: P2Y receptor (aorta endothelium); experiment: Relaxation of noradrenalin-contracted rabbit aorta; details: for relaxation pD2, aorta: rabbit aorta, log molar units
[8] = mean ± S.E.M. for at least 2 determinations, read-out: phosphatidyl inositol metabolism (K0.5, nM) erythrocyte
[9] = guinea pig taenia coli, log molar units, read-out: relaxation pD2, taenia coli (converted)

T4 sequence (P59902 whole entry): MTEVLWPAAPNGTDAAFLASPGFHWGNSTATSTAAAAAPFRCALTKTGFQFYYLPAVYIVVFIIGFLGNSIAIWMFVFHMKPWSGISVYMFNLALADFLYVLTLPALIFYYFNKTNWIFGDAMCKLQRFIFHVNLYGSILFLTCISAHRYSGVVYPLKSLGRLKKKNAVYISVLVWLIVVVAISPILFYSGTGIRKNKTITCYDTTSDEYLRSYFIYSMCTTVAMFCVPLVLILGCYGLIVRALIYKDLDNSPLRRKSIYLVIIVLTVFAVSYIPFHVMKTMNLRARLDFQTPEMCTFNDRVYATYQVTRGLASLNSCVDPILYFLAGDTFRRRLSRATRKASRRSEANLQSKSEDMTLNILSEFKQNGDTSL
T3 sequence (P49652 whole entry): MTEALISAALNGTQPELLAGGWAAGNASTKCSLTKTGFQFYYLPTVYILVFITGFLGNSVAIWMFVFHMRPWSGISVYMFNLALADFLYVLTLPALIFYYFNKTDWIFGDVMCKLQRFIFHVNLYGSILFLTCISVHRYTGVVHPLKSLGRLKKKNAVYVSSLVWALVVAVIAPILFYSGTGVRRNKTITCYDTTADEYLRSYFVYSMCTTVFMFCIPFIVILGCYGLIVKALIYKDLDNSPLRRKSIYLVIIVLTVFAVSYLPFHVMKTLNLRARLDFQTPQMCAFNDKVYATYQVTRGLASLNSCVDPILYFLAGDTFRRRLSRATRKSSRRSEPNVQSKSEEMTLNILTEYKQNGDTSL

## Nc1ncnc2c1ncn2[C@H]1CC[C@@H](COP(=O)(O)OP(=O)(O)OP(=O)(O)O)O1 [2',3'-Dideoxy-ATP, 2',3'-dideoxy-ATP, reference compound]
[1]
  activity/potency in words, bladder: >ATP
[2]
  activity/potency in words, vas deferens: ≈ATP
[3]
  activity/potency in words, turkey erythrocyte: weakly active at turkey erythrocyte P2Y receptors
[3]; [8]
  EC50: 70800 nM
[4]; guinea pig taenia coli
  activity/potency in words, taenia coli: as potent as ATP at taenia coli P2Y receptors
[4]; [9]
  EC50: 10 µM

## N#CCCCCCCSc1nc(N)c2ncn([C@@H]3O[C@H](COP(=O)(O)O)[C@@H](O)[C@H]3O)c2n1 [2-(6-Cyanohexyl)thio-AMP, 2-(6-cyanohexylthio)-AMP]
[5]
  relaxation pD2, mes. artery: 6.2
[3]; [8]
  EC50: 37000 nM
[3]; read-out: K0.5
  EC50: 37000 nM
[4]
  EC50: 39.8 µM
[6]; rabbit saphenous artery, 10 μM
  activation at 10 µM: 4.5%

## CC(=O)N[C@H]1[C@@H](O)[C@H](n2cnc3c(N)ncnc32)O[C@@H]1COP(=O)(O)OP(=O)(O)OP(=O)(O)O [3'-Acetylamino-3'deoxy-ATP, 3'-Acetylamino-3'-deoxyadenosine 5'-triphosphate]
[5]; listed as 3'-Acetylamino-3'-deoxy-ATP
  activity/potency in words, mesenteric artery: more potent than ATP at rabbit mesenteric artery P2Y receptors
[5]; listed as 3'-acetylamino-3'-deoxy-ATP
  activity/potency in words, mesenteric artery: the only P2Y receptor which had any appreciable activity was that in the rabbit mesenteric artery
[1]
  activity/potency in words, bladder: more or less as potent as ATP; also recorded: active in the vas deferens and urinary bladder
[7]; rabbit aorta endothelial P2Y receptor
  activity/potency/selectivity in words, aorta: inactive at 10 μM at rabbit aorta P2Y receptors
[2]
  activity/potency in words, vas deferens: more or less as potent as ATP; also recorded: active in the vas deferens and urinary bladder
[3]
  activity/potency in words, turkey erythrocyte: nearly inactive
[3]; [8]
  EC50: > 100000 nM
[4]; guinea pig taenia coli
  activity/potency in words, taenia coli: nearly inactive
[6]; rabbit saphenous artery
  activity/potency in words, saphenous artery: inactive in the saphenous artery

## Nc1ncnc2c1ncn2[C@@H]1O[C@H](COP(=O)(O)O)[C@@H](O)[C@H]1O [AMP, adenosine 5'-monophosphate, reference compound]
[5]
  relaxation pD2, mes. artery: 5.0
[1]
  activity/potency in words, bladder: inactive
[7]
  relaxation pD2, aorta: 4.8
[2]
  activity/potency in words, vas deferens: without effect
[3]; 5 min, at 10^-4 M, read-out: % stimulation at concentration indicated
  activation at 100 µM: 4 ± 2%
[3]
  activity/potency in words, turkey erythrocyte: inactive
[4]; guinea pig taenia coli
  activity/potency in words, taenia coli: much less potent

## Nc1ncnc2c1ncn2[C@@H]1O[C@H](COP(=O)(O)OP(=O)(O)NP(=O)(O)O)[C@@H](O)[C@H]1O [AppNHp, reference compound]
[5]
  relaxation pD2, mes. artery: 6.6
[7]
  relaxation pD2, aorta: 5.5
[2]
  activity/potency in words, vas deferens: an effect similar to methylene replacement
[3]
  activity/potency in words, turkey erythrocyte: equipotent with ATP in the erythrocytes
[3]; [8]
  EC50: 4450 ± 1150 nM
[4]; guinea pig taenia coli
  activity/potency in words, taenia coli: an effect similar to methylene replacement

## C=CCCCCSc1nc(NC)c2ncn([C@@H]3O[C@H](COP(=O)(O)O)[C@@H](O)[C@H]3O)c2n1 [N^6 -Me-2-(5-hexenyl)-thio-AMP, N^6 -Me-2-(5-hexenylthio)adenosine monophosphate]
[3]; [8]
  EC50: > 100000 nM
[6]; rabbit saphenous artery, 10 μM
  activation at 10 µM: 6.7%

## O=c1ccn([C@@H]2O[C@H](COP(=O)(O)OP(=O)(O)OP(=O)(O)O)[C@@H](O)[C@H]2O)c(=O)[nH]1 [UTP, reference compound]
[5]
  relaxation pD2, mes. artery: 6.7
[1]
  activity/potency in words, bladder: as potent as or more potent than ATP in the bladder
[7]
  relaxation pD2, aorta: 4.8
[2]
  activity/potency in words, vas deferens: without effect in the vas deferens
[3]; [8]
  EC50: 143000 nM
[4]; [9]
  EC50: 316 µM

## Nc1ncnc2c1ncn2[C@@H]1O[C@H](COP(=O)(O)OP(=O)(O)CP(=O)(O)O)[C@@H](O)[C@H]1O [β,γ-Me-ATP, β,γ-methylene-ATP, reference compound]
[1]
  activity/potency in words, bladder: markedly enhanced activity
[2]
  activity/potency in words, vas deferens: markedly enhanced activity
[3]; phosphatidyl inositol metabolism (K0.5, nM) erythrocyte, mean ± S.E.M. for at least 2 determinations
  EC50: > 100000 nM
[3]
  activity/potency in words, turkey erythrocyte: nearly inactive at ≥100 μM
[4]; guinea pig taenia coli
  activity/potency in words, taenia coli: reduced activity in the taenia coli
[6]
  activation at 10 µM: 89%
